The text below walks through data of PubChem BioAssay AID1963438 (Molecular Pharmacology Branch, DTP, NCI, 2024).

Where “and” joins values, the source holds several entries; their conditions need not be identical. Identical values can stand only once.

For the experiment, the system named is NCI-H510 multicellular tumor spheroid growth, % test/control. Kind of experiment: Anticancer human tumor NCI-H510 cell line growth inhibition [Asc].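 As to all read-outs here: spheroids exposed to agents for 7 days.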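 As to viability, T/C: 100% = DMSO vehicle control wells.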 The conditions noted are these: for viability, T/C: stronger effect = lower value. The method in brief:
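Tumor cells were grown as multicellular spheroids with stromal HUVEC and mesenchymal stem cells and treated singly or in combination. Concentrations fell in half-log steps from the clinical Cmax, or from 10 microM where none was known.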

Where [1] appears, read: curve of first compound, second compound 0.1 µM.
[2] abbreviates: curve of first compound, second compound 0.316 µM.
Setting [3] is: curve of first compound, second compound 1 µM.
Setting [4] is: curve of first compound, second compound 3.16 µM.
Setting [5] is: curve of first compound, second compound 10 µM.
Where [6] appears, read: second compound 0.1 µM, first compound 0.0316 µM.
[7] abbreviates: second compound 0.1 µM, first compound 0.1 µM.
The mark [8] stands for this setting: second compound 0.316 µM, first compound 0.0316 µM.
[9] abbreviates: second compound 0.316 µM, first compound 0.1 µM.
Setting [10] is: second compound 1 µM, first compound 0.0316 µM.
Where [11] appears, read: second compound 1 µM, first compound 0.1 µM.
Where [12] appears, read: second compound 3.16 µM, first compound 0.0316 µM.
[13] abbreviates: second compound 3.16 µM, first compound 0.1 µM.
Where [14] appears, read: second compound 10 µM, first compound 0.0316 µM.
Setting [15] is: second compound 10 µM, first compound 0.1 µM.
Setting [16] is: second compound 0.1 µM, first compound 0.316 µM.
Where [17] appears, read: second compound 0.1 µM, first compound 1 µM.
Setting [18] is: second compound 0.1 µM, first compound 3.16 µM.
The mark [19] stands for this setting: second compound 0.1 µM, first compound 10 µM.
Setting [20] is: second compound 0.316 µM, first compound 0.316 µM.
The mark [21] stands for this setting: second compound 0.316 µM, first compound 1 µM.
The mark [22] stands for this setting: second compound 0.316 µM, first compound 3.16 µM.
Setting [23] is: second compound 0.316 µM, first compound 10 µM.
The mark [24] stands for this setting: second compound 1 µM, first compound 0.316 µM.
Setting [25] is: second compound 1 µM, first compound 1 µM.
Setting [26] is: second compound 1 µM, first compound 3.16 µM.
The mark [27] stands for this setting: second compound 1 µM, first compound 10 µM.
Setting [28] is: second compound 3.16 µM, first compound 0.316 µM.
Setting [29] is: second compound 3.16 µM, first compound 1 µM.
The mark [30] stands for this setting: second compound 3.16 µM, first compound 3.16 µM.
Where [31] appears, read: second compound 3.16 µM, first compound 10 µM.
Setting [32] is: second compound 10 µM, first compound 0.316 µM.
The mark [33] stands for this setting: second compound 10 µM, first compound 1 µM.
[34] abbreviates: second compound 10 µM, first compound 3.16 µM.
[35] abbreviates: second compound 10 µM, first compound 10 µM.

Consider `Cn1ncnc1[C@H]1c2n[nH]c(=O)c3cc(F)cc(c23)N[C@@H]1c1ccc(F)cc1` + Cc1c(S(C)(=O)=O)c(-c2cc(F)cc(N3CCN(c4ccc(NS(=O)(=O)c5ccc(NC(CCN6CCC(C(=O)OCCCP(=O)(O)O)CC6)CSc6ccccc6)c(S(=O)(=O)C(F)(F)F)c5)cc4)CC3)c2)c(-c2ccc(Cl)cc2)n1C(C)C, for which the 50% inhibitory concentration (IC50) under setting [1] is 8.46 nM; the IC50 under setting [2] was found to be 9.32 nM; the IC50 under setting [3] worked out at 4.76 nM; the half-inhibitory concentration (IC50) under setting [4] came to 6.9 nM; the concentration for half-maximal inhibition (IC50) under setting [5] came out at 5 nM. Also, the viability, T/C by setting is: (second compound 0.1 µM, first compound 0.000316 µM) 88%; (second compound 0.1 µM, first compound 0.001 µM) 101%; (second compound 0.1 µM, first compound 0.00316 µM) 58.5%; (second compound 0.1 µM, first compound 0.01 µM) 58.2%; under setting [6], 9.67%; under setting [7], 7.11%. Besides, the viability, T/C was 106% (second compound 0.316 µM, first compound 0.000316 µM); 70.3% (second compound 0.316 µM, first compound 0.001 µM); 101% (second compound 0.316 µM, first compound 0.00316 µM); 47.3% (second compound 0.316 µM, first compound 0.01 µM); 5.08% under setting [8]; 5.01% under setting [9]. Moreover, the viability, T/C runs as follows: (second compound 1 µM, first compound 0.000316 µM) 96.2%; (second compound 1 µM, first compound 0.001 µM) 91.8%; (second compound 1 µM, first compound 0.00316 µM) 68.7%; (second compound 1 µM, first compound 0.01 µM) 16.2%; under setting [10], 2.54%; under setting [11], 2.95%. Also, the viability, T/C by setting is: (second compound 3.16 µM, first compound 0.000316 µM) 96.9%; (second compound 3.16 µM, first compound 0.001 µM) 79.8%; (second compound 3.16 µM, first compound 0.00316 µM) 92.3%; (second compound 3.16 µM, first compound 0.01 µM) 31.1%; under setting [12], 12.2%; under setting [13], 2.55%. Also, the viability, T/C is 92.6% (second compound 10 µM, first compound 0.000316 µM); 88.9% (second compound 10 µM, first compound 0.001 µM); 81.9% (second compound 10 µM, first compound 0.00316 µM); 1.81% (second compound 10 µM, first compound 0.01 µM); 1.16% under setting [14]; 1.64% under setting [15].
On to `Cn1ncnc1[C@H]1c2n[nH]c(=O)c3cc(F)cc(c23)N[C@@H]1c1ccc(F)cc1`, for which the viability, T/C reads like this: (compound 0.000316 µM) 106% and 114% (2×); (compound 0.001 µM) 98.2% and 93.5% and 70.4%; (compound 0.00316 µM) 80.9% and 92.1% and 86.5%; (compound 0.01 µM) 23.2% and 96.1% and 24.8%; (compound 0.0316 µM) 14.6% and 83.9% and 22.1%; (compound 0.1 µM) 12.7% and 99.4% and 18.4%.
As to `Cc1nc(N2CCC3(CC2)COC(C)C3N)c(CO)nc1Sc1ccnc(N)c1Cl` (stereo not given), the viability, T/C runs as follows: (compound 0.00949 µM) 103% and 93.2% and 86.2%; (compound 0.03 µM) 101% and 121% and 91%; (compound 0.0949 µM) 103% and 109% and 98.7%; (compound 0.3 µM) 99% and 118% and 99.2%; (compound 0.949 µM) 96.9% and 107% and 96.8%; (compound 3 µM) 100% and 106% and 80.6%. Further, under “curve of compound”, the IC50 is over 3000 nM.
For `O=C(c1cc(Cc2n[nH]c(=O)c3ccccc23)ccc1F)N1CCN(C(=O)C2CC2)CC1` + Cc1c(S(C)(=O)=O)c(-c2cc(F)cc(N3CCN(c4ccc(NS(=O)(=O)c5ccc(NC(CCN6CCC(C(=O)OCCCP(=O)(O)O)CC6)CSc6ccccc6)c(S(=O)(=O)C(F)(F)F)c5)cc4)CC3)c2)c(-c2ccc(Cl)cc2)n1C(C)C, the concentration for half-maximal inhibition (IC50) by setting is: under setting [1], 1610 nM; under setting [2], 1520 nM; under setting [3], 1490 nM; under setting [4], 1160 nM; under setting [5], 1320 nM. Further, the viability, T/C was 94.8% under setting [6]; 101% under setting [7]; 107% under setting [16]; 74.1% under setting [17]; 13.4% under setting [18]; 18.7% under setting [19]. Further, the viability, T/C was 124% under setting [8]; 89.1% under setting [9]; 106% under setting [20]; 73.5% under setting [21]; 8.58% under setting [22]; 3.25% under setting [23]. In addition, the viability, T/C runs as follows: under setting [10], 94.8%; under setting [11], 112%; under setting [24], 93.2%; under setting [25], 69.5%; under setting [26], 14.3%; under setting [27], 3.96%. The viability, T/C by setting is: under setting [12], 111%; under setting [13], 121%; under setting [28], 87.1%; under setting [29], 63.3%; under setting [30], 4.95%; under setting [31], 3.34%. Moreover, the viability, T/C by setting is: under setting [14], 81.6%; under setting [15], 94.5%; under setting [32], 81.5%; under setting [33], 65.2%; under setting [34], 1.71%; under setting [35], 1.74%.
As for `C#Cc1c(F)ccc2cc(O)cc(-c3ncc4c(N5CC6CCC(C5)N6)nc(OCC56CCCN5CC(F)C6)nc4c3F)c12` (stereo not given) + Cc1c(S(C)(=O)=O)c(-c2cc(F)cc(N3CCN(c4ccc(NS(=O)(=O)c5ccc(NC(CCN6CCC(C(=O)OCCCP(=O)(O)O)CC6)CSc6ccccc6)c(S(=O)(=O)C(F)(F)F)c5)cc4)CC3)c2)c(-c2ccc(Cl)cc2)n1C(C)C, the half-maximal inhibitory concentration (IC50) is over 10000 nM under setting [1]; over 10000 nM under setting [2]; over 10000 nM under setting [3]; over 10000 nM under setting [4]; 6600 nM under setting [5]. For the same compound, the viability, T/C runs as follows: under setting [6], 119%; under setting [7], 121%; under setting [16], 103%; under setting [17], 81.1%; under setting [18], 93.4%; under setting [19], 109%. Also, the viability, T/C is 112% under setting [8]; 104% under setting [9]; 105% under setting [20]; 91.7% under setting [21]; 89.9% under setting [22]; 73% under setting [23]. The viability, T/C is 105% under setting [10]; 121% under setting [11]; 119% under setting [24]; 109% under setting [25]; 108% under setting [26]; 73% under setting [27]. Further, the viability, T/C runs as follows: under setting [12], 108%; under setting [13], 101%; under setting [28], 110%; under setting [29], 115%; under setting [30], 109%; under setting [31], 77%. In addition, the viability, T/C is, setting by setting: under setting [14], 102%; under setting [15], 89.3%; under setting [32], 113%; under setting [33], 70.3%; under setting [34], 74.3%; under setting [35], 38.5%.
As for `Cc1c(S(C)(=O)=O)c(-c2cc(F)cc(N3CCN(c4ccc(NS(=O)(=O)c5ccc(NC(CCN6CCC(C(=O)OCCCP(=O)(O)O)CC6)CSc6ccccc6)c(S(=O)(=O)C(F)(F)F)c5)cc4)CC3)c2)c(-c2ccc(Cl)cc2)n1C(C)C` (stereo not given), under “compound 1 µM”, the viability, T/C was 95.2% [middle of 14 runs]. In addition, for the setting “compound alone, run of 10/11/2022”, the half-inhibitory concentration (IC50) was over 10000 nM.
